Where two headings read alike, the source gives them in different places.
Columns and labels:
[1] = test system: Haemaphysalis longicornis; assay: Tick (Haemaphysalis longicornis) control test on body surface of mouse; assay type: in vivo, Haemaphysalis longicornis on mice (ICR); conditions: 20 μL of 1,000-fold dilution of agent prepared as in Formulation Example 11 on mouse body surface, larval ticks, 3 days after release
Protocol: Ventral fur was shaved from an area having a diameter of about 2 cm in mice (ICR, 5-week-old males), and a 15 mL polystyrene conical tube cut to a length of about 1.5 cm was attached to the shaved area using instant glue.
An amount of 20 μL of a 1,000-fold dilution of the pest control agent prepared in the same way as in Formulation Example 11 was added dropwise onto the body surface of the mice within the attached tube. After the solution was allowed to dry thoroughly, ten or more larval ticks (Haemaphysalis longicornis) were released into the tube, which was then capped. Three days after released, the numbers of live and dead ticks were counted, and the mortality was calculated from the following formula. Blood-feeding inhibition (%)=100−[number of feeding ticks/(number of live ticks+number of dead ticks)]×100

small brown planthopper = assay: whole plant or invertebrate; assay type: in vivo; conditions: Laodelphax striatellus, foliar
Protocol: Rice seedlings grown in pots were subjected to the foliar application of solutions of the inventive compounds at a predetermined concentration prepared to 50% acetone/water (containing 0.05% Tween 20). The treated seedlings were air dried, following which second-instar larvae were released onto the seedlings. The seedlings and larvae were then held in an incubation chamber at 25° C. (16-hour period of light, 8-hour dark period). Three days after released, the numbers of live and dead insects were counted, and the mortality was calculated from the following formula. This was a two-replication test. Mortality (%)=[number of dead insects/(number of live insects+number of dead insects)]×100

cotton aphid = assay: whole plant or invertebrate; assay type: in vivo; conditions: Aphis gossypii, foliar
In short: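 Cucumber leaf discs (2.0 cm) sprayed with compound in 50% acetone/water with 0.05% Tween 20, air-dried, then infested with first-instar cotton aphids. Held at 25 °C under 16 h light/8 h dark; mortality counted after 3 days, two replicates.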

house fly = assay: House fly control test (local application); assay type: in vivo; design: dose or concentration left out as unconfirmed
Protocol: The inventive compounds prepared to a predetermined concentration in acetone were applied in an amount of 1 μL (per insect) to the backs of adult female flies raised indoors. Following chemical treatment, the flies were transferred to plastic cups, with five flies being placed in each cup, and held in an incubation chamber at 25° C. (16-hour period of light, 8-hour dark period). Twenty-four hours after treatment, the state of knockdown among the flies was observed, and the knockdown rate was calculated from the following formula. The test was carried out as two replications. Knockdown rate (%)=[number of knocked down insects/(number of live insects+number of knocked down insects)]×100

[2] = read-out: Insecticidal effects (mortality), small brown planthopper second-instar larvae
[3] = read-out: Insecticidal effects (mortality), cotton aphid first-instar larvae

O=C(N=c1ccccn1Cc1ccc(Cl)nc1)C(F)(F)F [Compound 212, N-[1-((6-chloropyridin-3-yl)methyl)pyridin-2(1H)-ylidene]-2,2,2-trifluoroacetamide]
Blood-feeding inhibition [1]: 91%
mortality at 0.313 ppm (small brown planthopper; [2]): 75%
mortality at 1.25 ppm (small brown planthopper; [2]): 100%
mortality at 5 ppm (small brown planthopper; [2]): 100%
mortality at 100 ppm (small brown planthopper; in Oryza sativa, 72 h): ≥ 80%
mortality at 1.25 ppm (cotton aphid; [3]): 100%
mortality at 5 ppm (cotton aphid; [3]): 95%
mortality at 20 ppm (cotton aphid; [3]): 100%
mortality at 100 ppm (cotton aphid; [3]): 100%
mortality at 500 ppm (cotton aphid; [3]): 100%
mortality at 20 ppm (cotton aphid; in Cucumis sativus, 72 h): ≥ 80%
mortality at 100 ppm (cotton aphid; in Cucumis sativus, 72 h): ≥ 80%
mortality at 500 ppm (cotton aphid; in Cucumis sativus, 72 h): ≥ 80%
Insecticidal effects (mortality), adult houseflies (house fly): 100

Source: patent US10085449B2, “N-[1-((6-chloropyridin-3-yl)methyl)pyridin-2(1H)-ylidene]-2,2,2- trifluoroacetamide for control of agricultural/horticultural pests” (priority 2010, dated 2018)
